Assay results taken from BindingDB's records for doi:10.1021/jm049465g (National Institute On Drug Abuse-Intramural Research Program, 2005).

assay: Inhibition of quinpirole stimulation of mitogenesis at human dopamine D2 receptors expressed in Chinese hamster ovary cells

Compound | EC50
O=C(NC/C=C/CN1CCN(c2cccc(Cl)c2Cl)CC1)c1ccc(I)cc1 [N-{4-[4-(2,3-Dichloro-phenyl)-piperazin-1-yl]-but-2-enyl}-4-iodo-benzamide] | 162 nM
COc1ccc(C(=O)NC/C=C/CN2CCN(c3cccc(Cl)c3Cl)CC2)cc1 [N-{4-[4-(2,3-Dichloro-phenyl)-piperazin-1-yl]-but-2-enyl}-4-methoxy-benzamide] | 61.8 nM
O=C(NC/C=C/CN1CCN(c2cccc(Cl)c2Cl)CC1)c1ccc([N+](=O)[O-])cc1 [N-{(E)-4-[4-(2,3-Dichloro-phenyl)-piperazin-1-yl]-but-2-enyl}-4-nitro-benzamide] | 13.8 nM
